{
  "source": "patent EP4803080A1",
  "about": "“METHOD FOR TREATING LEUKEMIA” (Shenzhen TargetRx Co., Ltd., priority 2023, dated 2025)",
  "key": {"[1]": {"assay": "Phase I clinical trial: pharmacokinetics", "format": "in vivo, humans", "conditions": "CML patients, oral", "excerpt": "• 1) To preliminarily evaluate the pharmacokinetic characteristics of Compound A after multiple oral administrations; • 2) To preliminarily evaluate the antitumor effects of Compound A.\nThis study is a single-arm, open-label, dose-escalation and dose-expansion Phase I clinical trial. The trial plans to enroll patients with chronic myeloid leukemia (CML) who have developed resistance or intolerance after prior treatment with BCR-ABL1 tyrosine kinase inhibitor(s) (TKIs).\nThe dose-escalation phase of this trial consists of about 8 dose groups, with oral administration under fasting conditions. Subjects in all dose groups will receive a single dose on Day 1 (D1), followed by pharmacokinetic (PK) and tolerability observations. If no drug-related adverse events of Grade 3 or higher occur during the single-dose period, the subject will enter the multiple-dose period (i.e., the treatment period) after 3-5 days (for the first dose group, the multiple-dose period begins 5 days after the first dose [i.e., starting on Day 6]; for subsequent dose groups, the interval will be determined based on available tolerability and PK data). […] The dosing frequency for subjects in subsequent dose groups after entering the multiple-dose period will be determined based on available PK and tolerability data. […]"}, "SUP-B15 cells": {"system": "SUP-B15 cells", "assay": "Efficacy study in the SUP-B15 subcutaneous xenograft model", "format": "in vivo", "conditions": "for TGI (%): after 21 days of administration", "protocol": "SUP-B15 cells, a Philadelphia chromosome-positive acute lymphoblastic leukemia cell line, were cultured in vitro using IMDM medium supplemented with 20% fetal bovine serum. When the cell count reached the required level, the cells were harvested, counted, and inoculated.\nAnimals: NCG mice, female, aged 6-8 weeks, weighing 18-22 grams. A total of 35 mice (including 15 spare mice) were used. The mice were provided by Jiangsu GemPharmatech Co., Ltd. or other qualified suppliers.\nTumor inoculation: 0.1 mL (10×10^6 cells) SUP-B15 cells and 0.1 mL Matrigel (total volume 0.2 mL) were mixed thoroughly and subcutaneously inoculated into the right back of each mouse.\nAnimal grouping and dosing: Grouping and dosing began when the average tumor volume reached 150-200 mm^3.\nAnimal Grouping: Animals were weighed and tumor volumes were measured prior to drug administration. Grouping was performed randomly based on tumor volume.\nObservation: Daily monitoring of animal health status and mortality, routine checks include observing tumor growth and the impact of drug treatment on daily behavioral performance such as activity levels, food and water intake, weight changes (measured twice a week or every other day), external signs, or other abnormalities. The number of animal deaths and side effects within each group based on the number of animals in each group were recorded.\nTest indicators: The test indicators were to examine whether tumor growth is inhibited, delayed, or cured. Tumor diameter was measured three times a week using a vernier caliper. The formula for calculating tumor volume was: V = 0.5a × b^2, where a and b represent the long and short diameters of the tumor, respectively.\nThe antitumor efficacy of the compounds was evaluated using TGI (%) or the relative tumor proliferation rate T/C (%). TGI (%) reflects the tumor growth inhibition rate.\nRelative Tumor Proliferation Rate T/C (%): The calculation formula is as follows: T/C % = TRTV / CRTV × 100% (TRTV: treatment group RTV; CRTV: negative control group RTV). The relative tumor volume (RTV) is calculated based on tumor measurement results, with the formula RTV = Vt / V0, where V0 is the average tumor volume measured at the time of grouping (i.e., d0), and Vt is the average tumor volume at a specific measurement time. TRTV and CRTV use data from the same day.\nAt the end of the test, tumor weight will be measured, and the Tweight/Cweight percentage will be calculated, where Tweight and Cweight represent the tumor weights of the treatment group and the vehicle control group, respectively.\nData analysis: T-test is used for comparisons between two groups. One-way ANOVA is used for comparisons among three or more groups. […] All data analyses are performed using SPSS 17.0. A p < 0.05 is considered statistically significant."}},
  "data": [
    {"smiles": "O=C(Nc1ccc(OC(F)(F)Cl)cc1)c1cnc(N2CC[C@@H](F)C2)c(-c2cnccn2)c1", "note": "[Compound A, (R)-N-(4-(chlorodifluoromethoxy)phenyl)-6-(3-fluoropyrrolidin-1-yl)-5-(pyrazin-2-yl)nicotinamide]", "values": [
      {"measurement": "exposure versus dose", "setting": "[1]", "result": "dose-proportional"},
      {"measurement": "half-life", "setting": "[1]; human, in vivo, read-out: terminal half-life", "result": "> 100", "unit": "h"},
      {"measurement": "TGI (%)", "setting": "SUP-B15 cells; 5 mg/kg p.o. qd", "result": 119.5, "unit": "%"},
      {"measurement": "TGI (%)", "setting": "SUP-B15 cells; 15 mg/kg p.o. qd", "result": 124.7, "unit": "%"},
      {"measurement": "TGI (%)", "setting": "SUP-B15 cells; 45 mg/kg p.o. qd", "result": 125.6, "unit": "%"},
      {"measurement": "weight loss", "setting": "SUP-B15 cells; any treatment group (5, 15, 45 mg/kg p.o. qd × 3 weeks)", "result": "No significant weight loss"}
    ]}
  ]
}
